Reference: US5225417A, “Opioid agonist compounds” (priority 1992, dated 1993)
Counter-ions that a name gives are not always drawn.

What was measured:
mice or rats [1] = assay: Tail Flick Assay; assay type: in vivo
From the text: The "Tail Flick Assay" uses thermal pain of transient duration, and is a test in which the pain threshold of the mice or rats being analyzed has not been altered. It is useful for evaluating the ability of a compound or drug to increase the animal's pain threshold (i.e. prolong response latencies), rather than to restore normal thresholds.
The heat-induced response to the Tail Flick Assay is a reflex reaction mediated at the level of the spinal cord.
Opiate compounds having clinical efficacy as analgesics generally increase tail flick latencies. Thus, morphine and codeine are generally determined to be active in this test.
The Tail Flick Assay was performed generally in the manner described by G. Woolfe et al., "The Evaluation of the Analgesic Action of Pethidine Hydrochloride (Demerol)," J. Pharmacol. Exp. Ther., 80, 300, (1944), F. D'Amour et al., "A Method for Determining Loss of Pain Sensation," J. Pharmacol. Exp. Ther., 72, 74, 300-307 (1941), and E. Drower et al., "The Antinociceptive Effects of Prostaglandin Antagonists in the Rat," European Journal of Pharmacology, 133, 249-256 (1987).
Male Charles River albino mice and male Charles River Sprague-Dawley rats weighing 20 to 30 g and 200 to 250 g, respectively, was employed in this assay.
Tail flick response latencies (defined as the time that elapsed between the onset of a high intensity beam of light and the reflex removal of the mouse or rat's tail) was measured before (baseline) and again at fixed intervals after subcutaneous or intracerebro-ventricular administration of one of the compounds of the invention, or after the administration of saline (controls). The cut-off latencies established to prevent tissue damage in the animals are 12 seconds or 14 seconds in the mouse and rat, respectively, in the Tail Flick Assay. The significance of any increase in tail flick response latency is determined using analyses of variance.
One way analyses of variance were used to determine the significance of the effect of the compounds of the invention on response latencies.
"Activity" or "Inactivity" was determined at a particular concentration of the compound by a significant increase in tail flick latency above normal latencies.
The numbers in parentheses are calculated ED50 values.

μ opioid receptor = μ opioid receptor (Rattus norvegicus, UniProt P33535); assay: Opiate Binding Assay, μ receptor (3[H]-DAMGO displacement); conditions: rat forebrain membranes, 3[H]-DAMGO 2.0 nM, 37° C., pH 7.4
Sequence of μ opioid receptor (P33535 whole entry): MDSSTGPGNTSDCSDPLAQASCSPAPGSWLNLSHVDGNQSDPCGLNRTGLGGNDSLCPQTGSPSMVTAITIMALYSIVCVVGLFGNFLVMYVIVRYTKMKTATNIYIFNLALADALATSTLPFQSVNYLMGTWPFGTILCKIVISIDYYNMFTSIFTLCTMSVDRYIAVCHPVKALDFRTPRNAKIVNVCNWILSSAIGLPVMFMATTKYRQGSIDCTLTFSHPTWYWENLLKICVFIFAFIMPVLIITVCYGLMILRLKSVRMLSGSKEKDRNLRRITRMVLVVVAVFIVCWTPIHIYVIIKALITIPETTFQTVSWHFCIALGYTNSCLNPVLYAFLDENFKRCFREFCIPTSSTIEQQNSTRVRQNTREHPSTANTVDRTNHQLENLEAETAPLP

δ opioid receptor = δ opioid receptor (Rattus norvegicus, UniProt P33533); assay: Opiate Binding Assay, δ receptor (3[H]-DSLET displacement)
Sequence of δ opioid receptor (P33533 whole entry): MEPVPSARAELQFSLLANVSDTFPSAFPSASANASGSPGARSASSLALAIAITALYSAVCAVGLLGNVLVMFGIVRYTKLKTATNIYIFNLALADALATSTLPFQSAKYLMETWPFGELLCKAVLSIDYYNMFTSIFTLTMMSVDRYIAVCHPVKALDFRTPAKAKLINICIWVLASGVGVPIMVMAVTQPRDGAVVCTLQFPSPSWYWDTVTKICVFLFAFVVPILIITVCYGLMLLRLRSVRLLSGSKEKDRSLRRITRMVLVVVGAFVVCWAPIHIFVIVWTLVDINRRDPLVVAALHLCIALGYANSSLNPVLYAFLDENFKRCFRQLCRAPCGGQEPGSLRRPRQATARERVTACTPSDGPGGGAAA

mice or rats [2] = conditions: background statement; cited from earlier work

Oc1ccc2c3c1O[C@H]1c4oc5ccccc5c4C[C@@]4(O)[C@@H](C2)N(Cc2ncc[nH]2)CC[C@]314 (relative stereo) [Example XV, 5,6,7,8,14,14bβ-Hexahydro-(1H-imidazol-2-ylmethyl)-4,8(R,α)-methano-4bS*-benzofuro[2,3-a]pyrido [4,3-b]carbazole-1,8aβ(9H)-diol, hydrochloride]
Tail flick activity, intracerebroventricular (mice or rats [1]; intracerebroventricular): ~ 10 nmoles | active dose in tail flick, intracerebroventricularly (mice or rats [1]; intracerebroventricular): ca. 10 nmoles | Tail flick activity, subcutaneous (active at) (mice or rats [1]; subcutaneous): inactive | Mean IC50 Value, μ (μ opioid receptor): inactive | IC50 (δ opioid receptor): 0.0792 µM

Cc1cc(CC(=O)O)n(C)c1C(=O)c1ccc(Cl)cc1 [Zomax]
activity in tail flick test (general knowledge) (mice or rats [2]): little activity

CC(=O)Oc1ccccc1C(=O)O [aspirin]
activity in tail flick test (general knowledge) (mice or rats [2]): little activity

COc1ccc2c3c1O[C@H]1[C@@H](O)C=C[C@H]4[C@@H](C2)N(C)CC[C@@]341 [codeine]
activity in tail flick test (general knowledge) (mice or rats [2]): active

CN1CC[C@]23c4c5ccc(O)c4O[C@H]2[C@@H](O)C=C[C@H]3[C@H]1C5 [morphine]
activity in tail flick test (general knowledge) (mice or rats [2]): active
